Experimental data from patent US6737383B1, “Herbicidal oxadiazolidines” (priority 1999, dated 2004).

Experiments:
[1] = test system: sugar beet; test: Test B pre/postemergence sugar beet; format: in vivo, Beta vulgaris
Outline: (§1)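 Response is a visual 0-to-10 score relative to untreated plants, where 0 means no effect and 10 means complete control, taken twelve to sixteen days after application. Treatments went onto soil at planting and onto foliage of 1- to 4-leaf plants, using a surfactant-containing non-phytotoxic solvent.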

[2] = test system: crabgrass; test: Test B pre/postemergence crabgrass; format: in vivo, Digitaria sanguinalis
Outline: as §1

[3] = test system: bamyardgrass; test: Test B flood test barnyardgrass; format: in vivo, Echinochloa crus-galli
Outline: (§2)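 Plants were grown to the 2-leaf stage before treatment with test chemical, then held in a greenhouse for twelve to sixteen days. Injury was visually rated against untreated controls on a 0–10 scale, where 0 is no effect and 10 is complete control.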

[4] = test system: cocklebur; test: Test B pre/postemergence cocklebur; format: in vivo, Xanthium strumarium
Outline: as §1

[5] = test system: wheat; test: Test B pre/postemergence wheat; format: in vivo, Triticum aestivum
Outline: as §1

[6] = test system: rape; test: Test B pre/postemergence rape; format: in vivo, Brassica napus
Outline: as §1

[7] = test system: morningglory; test: Test B pre/postemergence morningglory; format: in vivo, Ipomoea hederacea
Outline: as §1

[8] = test system: pigweed; test: Test B pre/postemergence pigweed; format: in vivo, Amaranthus retroflexus
Outline: as §1

[9] = test system: purple nutsedge; test: Test B pre/postemergence purple nutsedge; format: in vivo, Cyperus rotundus
Outline: as §1

[10] = test system: rice; test: Test B flood test rice; format: in vivo, Oryza sativa
Outline: as §2

[11] = test system: wild oat; test: Test B pre/postemergence wild oat; format: in vivo, Avena fatua
Outline: as §1

[12] = test system: duck salad; test: Test B flood test duck salad; format: in vivo, Heteranthera limosa
Outline: as §2

[13] = test system: smallflower flatsedge; test: Test B flood test smallflower flatsedge; format: in vivo, Cyperus difformis
Outline: as §2

[14] = test system: soybean; test: Test B pre/postemergence soybean; format: in vivo, Glycine max
Outline: as §1

[15] = test system: blackgrass; test: Test B pre/postemergence blackgrass; format: in vivo, Alopecurus myosuroides
Outline: as §1

[16] = test system: giant foxtail; test: Test B pre/postemergence giant foxtail; format: in vivo, Setaria faberii
Outline: as §1

[17] = test system: corn; test: Test B pre/postemergence corn; format: in vivo, Zea mays
Outline: as §1

[18] = test system: surinam grass; test: Test B pre/postemergence surinam grass; format: in vivo, Brachiaria decumbens
Outline: as §1

[19] = test system: velvetleaf; test: Test B pre/postemergence velvetleaf; format: in vivo, Abutilon theophrasti
Outline: as §1

[20] = test system: bedstraw; test: Test B pre/postemergence bedstraw; format: in vivo, Galium aparine; conditions: Preemergence; for Bedstraw plant response rating: scale 0 to 10, 0 is no effect, 10 is complete control
Outline: as §1

[21] = Postemergence, Rate 125 g/ha, scale 0 to 10, 0 is no effect, 10 is complete control
[22] = Postemergence, Rate 500 g/ha, scale 0 to 10, 0 is no effect, 10 is complete control
[23] = Preemergence, Rate 62 g/ha, scale of 0 to 10 where 0 is no effect and 10 is complete control
[24] = Preemergence, Rate 125 g/ha, scale 0 to 10, 0 is no effect, 10 is complete control
[25] = Preemergence, Rate 500 g/ha, scale 0 to 10, 0 is no effect, 10 is complete control
[26] = Rate 62 g/ha, Postemergence, scale 0 to 10 (0 no effect, 10 complete control)
[27] = Postemergence, Rate 250 g/ha, scale 0 to 10
[28] = Rate 62 g/ha, flood test species, Pre-emergence, visual evaluation after twelve to sixteen days
[29] = Rate 125 g/ha, under heading Pre-emergence, flood test species, visual evaluation after twelve to sixteen days
[30] = Rate 250 g/ha, Pre-emergence (flood test species), scale 0 to 10, 0 is no effect, 10 is complete control
[31] = Rate 500 g/ha, Pre-emergence section of Table B, 0 to 10 scale (0 no effect, 10 complete control)
[32] = Preemergence, Rate 250 g/ha, scale 0 to 10, 0 is no effect, 10 is complete control

CC(C)N(C(=O)n1oc(=O)n(CCNC(=O)CCl)c1=O)c1ccccc1 [Compound 492]
Sugarbeets plant response rating [1, 21]: 0 | Plant response rating, Sugarbeets [1, 22]: 0 | Plant response rating, Sugarbeets [1, 23]: 0 | Sugarbeets plant response rating [1, 24]: 0 | Sugarbeets plant response rating [1, 25]: 0 | Sugarbeets plant response rating [1, 26]: 0 | Crabgrass plant response rating [2, 27]: 0 | Plant response rating, Crabgrass [2, 22]: 0 | Plant response rating, Crabgrass [2, 23]: 0 | Crabgrass plant response rating [2, 24]: 0 | Crabgrass plant response rating [2, 25]: 3 | Crabgrass plant response rating [2, 26]: 0 | Plant response rating, Barnyardgrass (0 to 10 scale, 0 is no effect, 10 is complete control) [3, 28]: 0 | Barnyardgrass plant response rating (0 to 10 scale, 0 is no effect, 10 is complete control) [3, 29]: 0 | Barnyardgrass plant response rating [3, 30]: 0 | Barnyardgrass plant response rating [3, 31]: 0 | Cocklebur plant response rating [4, 21]: 0 | Cocklebur plant response rating [4, 27]: 0 | Plant response rating, Cocklebur [4, 22]: 0 | Plant response rating, Cocklebur [4, 23]: 0 | Cocklebur plant response rating [4, 24]: 0 | Cocklebur plant response rating [4, 32]: 0 | Cocklebur plant response rating [4, 25]: 0 | Cocklebur plant response rating [4, 26]: 0 | Wheat plant response rating [5, 21]: 0 | Plant response rating, Wheat [5, 22]: 0 | Plant response rating, Wheat [5, 23]: 0 | Wheat plant response rating [5, 24]: 0 | Wheat plant response rating [5, 25]: 0 | Wheat plant response rating [5, 26]: 0 | Rape plant response rating [6, 21]: 0 | Plant response rating, Rape [6, 22]: 0 | Plant response rating, Rape [6, 23]: 0 | Rape plant response rating [6, 24]: 0 | Rape plant response rating [6, 25]: 0 | Rape plant response rating [6, 26]: 0 | Morningglory plant response rating [7, 21]: 5 | Plant response rating, Morningglory [7, 22]: 8 | Plant response rating, Morningglory [7, 23]: 0 | Morningglory plant response rating [7, 24]: 0 | Morningglory plant response rating [7, 25]: 0 | Morningglory plant response rating [7, 26]: 0 | Redroot pigweed plant response rating [8, 21]: 0 | Plant response rating, Redroot pigweed [8, 22]: 7 | Plant response rating, Redroot pigweed [8, 23]: 0 | Redroot pigweed plant response rating [8, 24]: 0 | Redroot pigweed plant response rating [8, 25]: 0 | Redroot pigweed plant response rating [8, 26]: 0 | Nutsedge plant response rating [9, 21]: 0 | Plant response rating, Nutsedge [9, 22]: 0 | Plant response rating, Nutsedge [9, 23]: 0 | Nutsedge plant response rating [9, 24]: 0 | Nutsedge plant response rating [9, 25]: 0 | Nutsedge plant response rating [9, 26]: 0 | Plant response rating, Rice (0 to 10 scale, 0 is no effect, 10 is complete control) [10, 28]: 0 | Rice plant response rating (0 to 10 scale, 0 is no effect, 10 is complete control) [10, 29]: 0 | Rice plant response rating [10, 30]: 0 | Rice plant response rating [10, 31]: 0 | Wild oats plant response rating [11, 21]: 0 | Plant response rating, Wild oats [11, 22]: 0 | Plant response rating, Wild oats [11, 23]: 0 | Wild oats plant response rating [11, 24]: 0 | Wild oats plant response rating [11, 25]: 0 | Wild oats plant response rating [11, 26]: 0 | Plant response rating, Ducksalad (0 to 10 scale, 0 is no effect, 10 is complete control) [12, 28]: 0 | Ducksalad plant response rating (0 to 10 scale, 0 is no effect, 10 is complete control) [12, 29]: 0 | Ducksalad plant response rating [12, 30]: 0 | Ducksalad plant response rating [12, 31]: 0 | Plant response rating, S. Flatsedge (0 to 10 scale, 0 is no effect, 10 is complete control) [13, 28]: 0 | S. Flatsedge plant response rating (0 to 10 scale, 0 is no effect, 10 is complete control) [13, 29]: 0 | S. Flatsedge plant response rating [13, 30]: 0 | S. Flatsedge plant response rating [13, 31]: 0 | Soybean plant response rating [14, 21]: 0 | Plant response rating, Soybean [14, 22]: 0 | Plant response rating, Soybean [14, 23]: 0 | Soybean plant response rating [14, 24]: 0 | Soybean plant response rating [14, 25]: 0 | Soybean plant response rating [14, 26]: 0 | Blackgrass plant response rating [15, 21]: 0 | Blackgrass plant response rating [15, 27]: 0 | Plant response rating, Blackgrass [15, 22]: 0 | Plant response rating, Blackgrass [15, 23]: 0 | Blackgrass plant response rating [15, 24]: 0 | Blackgrass plant response rating [15, 32]: 0 | Blackgrass plant response rating [15, 25]: 0 | Blackgrass plant response rating [15, 26]: 0 | Giant foxtail plant response rating [16, 21]: 0 | Plant response rating, Giant foxtail [16, 22]: 0 | Plant response rating, Giant foxtail [16, 23]: 2 | Giant foxtail plant response rating [16, 24]: 0 | Giant foxtail plant response rating [16, 25]: 9 | Giant foxtail plant response rating [16, 26]: 0 | Corn plant response rating [17, 21]: 0 | Corn plant response rating [17, 27]: 0 | Plant response rating, Corn [17, 22]: 0 | Plant response rating, Corn [17, 23]: 0 | Corn plant response rating [17, 24]: 0 | Corn plant response rating [17, 25]: 0 | Corn plant response rating [17, 26]: 0 | B. signalgrass plant response rating [18, 21]: 0 | B. signalgrass plant response rating ([18]; Postemergence, Rate 250 g/ha, scale 0 to 10, 0 no effect, 10 complete control): 0 | Plant response rating, B. signalgrass [18, 22]: 0 | Plant response rating, B. signalgrass [18, 23]: 0 | B. signalgrass plant response rating [18, 24]: 0 | B. signalgrass plant response rating [18, 32]: 0 | B. signalgrass plant response rating [18, 25]: 0 | B. signalgrass plant response rating [18, 26]: 0 | Velvetleaf plant response rating [19, 21]: 0 | Plant response rating, Velvetleaf [19, 22]: 0 | Plant response rating, Velvetleaf [19, 23]: 0 | Velvetleaf plant response rating [19, 24]: 0 | Velvetleaf plant response rating [19, 25]: 4 | Velvetleaf plant response rating [19, 26]: 0 | Plant response rating, Bedstraw ([20]; Rate 62 g/ha, scale of 0 to 10 where 0 is no effect and 10 is complete control): 0 | Bedstraw plant response rating ([20]; Rate 125 g/ha): 0 | Bedstraw plant response rating ([20]; Rate 250 g/ha): 0 | Bedstraw plant response rating ([20]; Rate 500 g/ha): 0
